Data reported in patent US9505773B2 (Isomerase Therapeutics Limited, priority 2013, dated 2016).

Key:
[1] = test system: murine T cell proliferation (PLP peptide-stimulated lymph node cells; mTOR-driven); experiment: Murine PLP T cell proliferation assay (PLP assay); type: cell-based; conditions: for IC50: Mus musculus, PLP T-cell proliferation assay; for Ratio (PLP/FKBP*): PLP IC50 / FKBP12 Ki (Ki values from Example 19)
[2] = molecular target: FKBP12 (Homo sapiens (Human), UniProt P62942); experiment: FKBP12 PPlase assay; type: biochemical; conditions: for inhibition at 1 µM: read-out: inhibition of FKBP12 at 1 uM; for Ki: FKBP12 PPlase assay, 6 concentrations in duplicate, data fitted to a Ki curve
FKBP12, sequence (P62942 whole entry, species assumed): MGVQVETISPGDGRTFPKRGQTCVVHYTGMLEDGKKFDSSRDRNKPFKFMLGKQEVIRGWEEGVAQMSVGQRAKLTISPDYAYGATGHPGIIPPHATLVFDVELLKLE

inhibition at 1 µM [2] | Ki [2] | Structure (SMILES) | IC50 [1] | Ratio (PLP/FKBP*) [1]
 | 370 nM | CO[C@H]1C[C@@H]2CC[C@@H](C)[C@](O)(CC(=O)N3CCCC[C@H]3C(=O)OC([C@H](C)C[C@H]3CC[C@H](O)CC3)CC(=O)[C@H](C)C[C@H](C)/C=C/C=C/C=C/1C)O2 (some centres unmarked) [Compound 6] | 2620 nM | 7.095
 | 4.2 nM | CO[C@H]1C[C@@H]2CC[C@@H](C)[C@@](O)(O2)C(=O)C(=O)N2CCCC[C@H]2C(=O)OC([C@H](C)C[C@@H]2CC[C@@H](O)[C@H](O)C2)C/C=C(\C)[C@@H](O)CC(=O)[C@H](C)C[C@H](C)/C=C/C=C/C=C/1C (some centres unmarked) [Compound 10] | 14000 nM | 3338.333
 | 9.5 nM | CO[C@H]1C[C@@H]2CC[C@@H](C)[C@@](O)(O2)C(=O)C(=O)N2CCCC[C@H]2C(=O)OC([C@H](C)Cc2ccc(CO)s2)C/C=C(\C)[C@@H](O)CC(=O)[C@H](C)C[C@H](C)/C=C/C=C/C=C/1C (some centres unmarked) [Compound 12] | 2860 nM | 301.5789
 | 45 nM | CO[C@H]1C[C@@H]2CC[C@@H](C)[C@](O)(CC(=O)N3CCCC[C@H]3C(=O)O[C@H]([C@H](C)C[C@H]3CC[C@H](O)CC3)C/C=C(\C)[C@@H](O)CC(=O)[C@H](C)C[C@H](C)/C=C/C=C/C=C/1C)O2 [Compound 18] |  | 
 | 7.7 nM | C/C1=C\C[C@@H]([C@H](C)C[C@H]2CC[C@H](O)CC2)OC(=O)[C@@H]2CCCCN2C(=O)C(=O)[C@]2(O)O[C@@H](CC[C@H]2C)C[C@H](O)/C(C)=C/C=C/C=C/[C@@H](C)C[C@@H](C)C(=O)C[C@@H]1O [Compound 19] |  | 
 | 18 nM | CO[C@H]1C[C@@H]2CC[C@@H](C)[C@@](O)(O2)C(=O)C(=O)N2CCCC[C@H]2C(=O)O[C@H]([C@H](C)C[C@H]2CC[C@H](O)CC2)C/C=C(\C)[C@@H](O)[C@@H](O)C(=O)[C@H](C)C[C@H](C)/C=C/C=C/C=C/1C [Compound 20] |  | 

The remaining lines, values behind:

Structure (SMILES) | inhibition at 1 µM [2] | Ki [2] | IC50 [1] | Ratio (PLP/FKBP*) [1]
CO[C@@H](C[C@@H]1CC[C@@H](C)[C@](O)(CC(=O)N2CCCC[C@H]2C(=O)O)O1)/C(C)=C/C=C/C=C/[C@@H](C)C[C@H]1CC[C@H](O)CC1 [Compound 3] | 25% |  | 1450 nM | 
CO[C@H]1C[C@@H]2CC[C@@H](C)[C@@](O)(O2)C(=O)C(=O)N2CCCC[C@H]2C(=O)OC([C@H](C)C[C@H]2CC[C@H](O)CC2)C[C@@H](O)CC(=O)[C@H](C)C[C@H](C)/C=C/C=C/C=C/1C (some centres unmarked) [Compound 4] |  |  | 4460 nM | 
CO[C@H]1C[C@@H]2CC[C@@H](C)[C@@](O)(O2)C(=O)C(=O)N2CCCC[C@H]2C(=O)OC([C@H](C)C[C@H]2CC[C@H](O)CC2)C/C=C(\C)[C@@H](O)CC(=O)[C@H](C)C[C@H](C)/C=C/C=C/C=C/1C (some centres unmarked) [Compound 5] |  | 7.9 nM |  | 
CO[C@H]1C[C@@H]2CC[C@@H](C)[C@@](O)(O2)C(=O)C(=O)N2CCCC[C@H]2C(=O)OC([C@H](C)C[C@@H]2CC[C@@H](O)[C@H](OC)C2)C/C=C(\C)[C@@H](O)CC(=O)[C@H](C)C[C@H](C)/C=C/C=C/C=C/1C (some centres unmarked) [Compound 8] |  | 5.9 nM | 490 nM | 83.05
CO[C@H]1C[C@@H]2CC[C@@H](C)[C@](O)(CC(=O)N3CCCC[C@H]3C(=O)OC([C@H](C)C[C@@H]3CC[C@@H](O)[C@H](O)C3)C/C=C(\C)[C@@H](O)CC(=O)[C@H](C)C[C@H](C)/C=C/C=C/C=C/1C)O2 (some centres unmarked) [Compound 9] |  | 180 nM |  | 
CO[C@H]1C[C@@H]2CC[C@@H](C)[C@](O)(CC(=O)N3CCCC[C@H]3C(=O)O[C@H](/C(C)=C/CC(O)[C@H](C)C[C@@H]3CC[C@@H](O)[C@H](O)C3)CC(=O)[C@H](C)C[C@H](C)/C=C/C=C/C=C/1C)O2 (some centres unmarked) [Compound 11] |  | 430 nM | 4180 nM | 9.721
CO[C@H]1C[C@@H]2CC[C@@H](C)[C@@](O)(O2)C(=O)C(=O)N2CCCC[C@H]2C(=O)OC([C@H](C)Cc2ccncc2)C/C=C(\C)[C@@H](O)CC(=O)[C@H](C)C[C@H](C)/C=C/C=C/C=C/1C (some centres unmarked) [Compound 13] |  | 13 nM | 6590 nM | 506.6154
CO[C@H]1C[C@@H]2CC[C@@H](C)[C@@](O)(O2)C(=O)C(=O)N2CCCC[C@H]2C(=O)O[C@H]([C@H](C)C[C@H]2CC[C@H](O)CC2)CC(O)CC(=O)[C@H](C)/C=C(\C)[C@@H](O)CC(=O)[C@@H](C)C[C@H](C)/C=C/C=C/C=C/1C (some centres unmarked) [Compound 14] |  | 6.5 nM |  | 
CO[C@H]1C[C@@H]2CC[C@@H](C)[C@@](O)(O2)C(=O)C(=O)N2CCCC[C@H]2C(=O)OC2CCC(CC2)C(=O)[C@H](C)C[C@H](C)/C=C/C=C/C=C/1C [Compound 15] | 31% |  |  | 
C\C1=C/C=C/C=C/[C@@H](C)C[C@@H](C)C(=O)C2CCC(CC2)OC(=O)[C@@H]2CCCCN2C(=O)C(=O)[C@]2(O)O[C@@H](CC[C@H]2C)C[C@@H]1O [Compound 16] |  | 460 nM |  | 
CO[C@@H](C[C@@H]1CC[C@@H](C)[C@](O)(C(=O)C(=O)N2CCCC[C@H]2C(=O)O[C@@H](C/C=C(\C)C=O)[C@H](C)C[C@H]2CC[C@H](O)CC2)O1)/C(C)=C/C=C/C=C/[C@@H](C)C[C@@H](C)C(=O)CO [Compound 22] |  | 12 nM |  | 
CC/C1=C\CC(/C(C)=C/C(C)C(C)O)OC(=O)C2CCCCN2C(=O)C(=O)C2(O)OC(CCC2C)CC(O)C(C)C(O)CC(O)CC(O)/C(C)=C/C(C)CC(C)C1O (centres unmarked) [Meridamycin] |  | 10 nM |  | 
CO[C@H]1C[C@@H]2CC[C@@H](C)[C@@](O)(O2)C(=O)C(=O)N2CCCC[C@H]2C(=O)O[C@H]([C@H](C)C[C@@H]2CC[C@@H](O)[C@H](OC)C2)CC(=O)[C@H](C)/C=C(\C)[C@@H](O)[C@@H](OC)C(=O)[C@H](C)C[C@H](C)/C=C/C=C/C=C/1C [Rapamycin, rapamycin, reference compound] |  |  | 0.024 nM | 
